Test results from PubChem BioAssay AID2060498 (Molecular Pharmacology Branch, DTP, NCI, 2025).

Tested on: 171881-019-R-J1-PDC tumor spheroids, viability
Assay: Anticancer human tumor 171881-019-R-J1-PDC patient-derived invasive breast carcinoma cell line growth inhibition [GQUAD]
Conditions: spheroids with HUVEC and MSC; for IC50: curve of first compound; for viability, T/C: stronger effect = lower value
Method in brief: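 Multi-cell-type spheroids of tumor cells with HUVEC and mesenchymal stem cells, treated with drug combinations. Concentrations descend in half-log steps from near clinical Cmax, or from 10 microM where Cmax is unknown; viability read-out.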
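Further: spheroids exposed to compounds for 7 days.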
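Wherever viability, T/C is given: 100% = DMSO vehicle control viability.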

Structure (SMILES): CC[C@@]1(O)C(=O)OCc2c1cc1n(c2=O)Cc2cc3c(CN(C)C)c(O)ccc3nc2-1 + Cc1[nH]c2ccc(F)cc2c1-c1nc2c3cccnc3c3ncccc3c2[nH]1
- IC50 (second compound 0.0316 µM): 96.1 nM
- IC50 (second compound 0.1 µM): 122 nM
- IC50 (second compound 0.316 µM): 142 nM
- IC50 (second compound 1 µM): 119 nM
- IC50 (second compound 3.16 µM): < 0.999 nM
- IC50 (second compound 10 µM): < 0.999 nM
- viability, T/C (second compound 0.0316 µM, first compound 0.000999 µM): 97%
- viability, T/C (second compound 0.0316 µM, first compound 0.00316 µM): 86.9%
- viability, T/C (second compound 0.0316 µM, first compound 0.00999 µM): 97.9%
- viability, T/C (second compound 0.0316 µM, first compound 0.0316 µM): 87.1%
- viability, T/C (second compound 0.0316 µM, first compound 0.0999 µM): 48.8%
- viability, T/C (second compound 0.0316 µM, first compound 0.316 µM): 37.8%
- viability, T/C (second compound 0.1 µM, first compound 0.000999 µM): 108%
- viability, T/C (second compound 0.1 µM, first compound 0.00316 µM): 99.1%
- viability, T/C (second compound 0.1 µM, first compound 0.00999 µM): 93.1%
- viability, T/C (second compound 0.1 µM, first compound 0.0316 µM): 87.1%
- viability, T/C (second compound 0.1 µM, first compound 0.0999 µM): 50.8%
- viability, T/C (second compound 0.1 µM, first compound 0.316 µM): 39.7%
- viability, T/C (second compound 0.316 µM, first compound 0.000999 µM): 101%
- viability, T/C (second compound 0.316 µM, first compound 0.00316 µM): 104%
- viability, T/C (second compound 0.316 µM, first compound 0.00999 µM): 90.5%
- viability, T/C (second compound 0.316 µM, first compound 0.0316 µM): 82.8%
- viability, T/C (second compound 0.316 µM, first compound 0.0999 µM): 53.9%
- viability, T/C (second compound 0.316 µM, first compound 0.316 µM): 38.1%
- viability, T/C (second compound 1 µM, first compound 0.000999 µM): 87.6%
- viability, T/C (second compound 1 µM, first compound 0.00316 µM): 68%
- viability, T/C (second compound 1 µM, first compound 0.00999 µM): 86%
- viability, T/C (second compound 1 µM, first compound 0.0316 µM): 70.3%
- viability, T/C (second compound 1 µM, first compound 0.0999 µM): 52.8%
- viability, T/C (second compound 1 µM, first compound 0.316 µM): 37.7%
- viability, T/C (second compound 3.16 µM, first compound 0.000999 µM): 21.7%
- viability, T/C (second compound 3.16 µM, first compound 0.00316 µM): 17.7%
- viability, T/C (second compound 3.16 µM, first compound 0.00999 µM): 22.7%
- viability, T/C (second compound 3.16 µM, first compound 0.0316 µM): 24.3%
- viability, T/C (second compound 3.16 µM, first compound 0.0999 µM): 22.9%
- viability, T/C (second compound 3.16 µM, first compound 0.316 µM): 16.7%
- viability, T/C (second compound 10 µM, first compound 0.000999 µM): 46.2%
- viability, T/C (second compound 10 µM, first compound 0.00316 µM): 41.7%
- viability, T/C (second compound 10 µM, first compound 0.00999 µM): 45.2%
- viability, T/C (second compound 10 µM, first compound 0.0316 µM): 38.4%
- viability, T/C (second compound 10 µM, first compound 0.0999 µM): 37.6%
- viability, T/C (second compound 10 µM, first compound 0.316 µM): 20.7%
